# Reference: patent US8389557B2, “Triazole derivatives useful as Axl inhibitors” (Rigel Pharmaceuticals, Inc., priority 2005, dated 2013)
# Molecular target: T1, Axl (Homo sapiens, UniProt P30530)
# T1 construct: endogenous in cells; host or cells: HeLa cells
# T1 sequence (P30530 26-894): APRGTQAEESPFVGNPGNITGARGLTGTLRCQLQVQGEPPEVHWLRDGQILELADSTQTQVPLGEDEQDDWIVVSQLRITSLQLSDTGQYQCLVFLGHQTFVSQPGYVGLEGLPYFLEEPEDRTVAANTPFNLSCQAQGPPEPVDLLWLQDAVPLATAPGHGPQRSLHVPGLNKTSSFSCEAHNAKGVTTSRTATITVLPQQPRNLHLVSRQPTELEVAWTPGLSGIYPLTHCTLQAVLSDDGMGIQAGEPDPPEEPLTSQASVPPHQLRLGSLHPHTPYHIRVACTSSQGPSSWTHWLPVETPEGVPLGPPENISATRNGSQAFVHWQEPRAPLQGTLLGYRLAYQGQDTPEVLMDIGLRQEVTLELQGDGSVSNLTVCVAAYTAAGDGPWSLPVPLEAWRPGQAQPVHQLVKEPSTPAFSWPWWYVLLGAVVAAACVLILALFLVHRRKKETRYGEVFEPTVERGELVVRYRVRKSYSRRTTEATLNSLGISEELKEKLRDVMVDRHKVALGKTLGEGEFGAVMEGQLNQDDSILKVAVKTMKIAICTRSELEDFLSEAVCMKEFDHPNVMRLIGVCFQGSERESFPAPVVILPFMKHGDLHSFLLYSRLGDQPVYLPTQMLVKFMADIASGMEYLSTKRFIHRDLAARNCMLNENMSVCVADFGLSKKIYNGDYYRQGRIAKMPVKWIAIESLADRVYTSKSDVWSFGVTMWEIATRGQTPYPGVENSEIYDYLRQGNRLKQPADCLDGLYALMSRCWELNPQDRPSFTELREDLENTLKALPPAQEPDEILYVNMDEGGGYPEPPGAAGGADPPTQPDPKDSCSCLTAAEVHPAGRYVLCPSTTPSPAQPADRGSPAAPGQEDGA
# Assay: Phospho-Akt in-cell Western assay (inhibition of Axl activity)
# Assay type: cell-based
# Experimental: The compounds of the invention were tested in the following assay for their ability to inhibit Axl activity.
# Phospho-Akt in-Cell Western Assay
# • Cell culture plate: 96 well assay plate (Corning 3610), white, clear bottom, tissue-culture treated. • Cells: Hela cells. • Starvation medium: For Axl stimulation: 0.5% FCS (fetal calf serum) in DMEM, plus Axl/Fc (extracellular domain of AXL fused to immunoglobulin Fc region) (R&D, 154-AL) 500 ng/mL. • For EGF (epidermal growth factor) stimulation: 0.5% FCS in DMEM (Dulbecco's modified Eagles medium). • Poly-L-Lysine 0.01% solution (the working solution): 10 μg/ml, dilute In PBS (phosphate buffered saline). • Axl antibody cross-linking: • 1st: Mouse anti-Axl (R&D, MAB154). • 2nd: Biotin-SP-conjugated AffiniPure goat anti-mouse IgG (H+L) (Jackson ImmunoResearch #115-065-003). • Fixing buffer: 4% formaldehyde in PBS. • Wash buffer: 0.1% TritonX-100 in PBS. • Quenching buffer: 3% H2O2, 0.1% Azide in wash buffer, Azide and hydrogen peroxide (H2O2) are added fresh. • Blocking buffer: 5% BSA in TBST (tris buffered saline plus 0.1% Tween 20). • Primary antibody: Rabbit anti-human Phospho-Akt antibody (Cell Signaling 9271): 1×250 diluted in blocking buffer. • Secondary antibody: HRP (horse radish peroxidase)-conjugated Goat anti-Rabbit secondary, stock solution: Jackson ImmunoResearch (Goat anti-Rabbit HRP, #111-035-144) 1:1 diluted in glycerol, store at −20° C. The working solution: 1×2000 dilution of stock in blocking buffer. • Chemiluminescent working solution (Pierce, 37030): SuperSignal ELISA (enzyme linked immunosorbant assay) Pico Chemiluminescent substrate. • Crystal Violet solution: Stock: 2.5% Crystal violet in methanol, filtered and kept at ambient temperature. The working solution: dilute the stock 1:20 with PBS immediately before use. • 10% SDS: working solution: 5% SDS (sodium dodecylsulfate), diluted in PBS Methods: Day 1:
# A 96 well TC (tissue culture treated) plate was coated with 10 μg/mL poly-L-Lysine at 37° C. for 30 min, washed twice with PBS, and air-dried for 5 minutes before cells were added. Hela cells were seeded at 10,000 cells/well and the cells were starved in 100 μL starvation medium containing Axl/Fc for 24 hrs.
# The cells were pre-treated with test compounds by adding 100 μL of 2× test compound to the starvation medium on the cells. The cells were incubated at 37° C. for 1 hr before stimulation.
# The cells were stimulated by Axl-antibody cross-linking as follows: A 5×1st/2nd Axl antibody mixture was made (37.5 μg/mL 1st/100 μg/mL 2nd) in starvation medium and nutated at 4° C. with thorough mixing for 1-2 hours for clustering. The resulting mix was warmed to 37° C. 50 μL of 5× Axl 1st/2nd of antibody cluster was added to the cells and the cells were incubated at 37° C. for 5 min.
# After 5 minutes stimulation, the plate was flicked to remove medium and the plate was tapped onto paper towels. Formaldehyde (4.0% in PBS, 100 μL) was added to fix the cells and the cells were incubated at ambient temperature for 20 min without shaking.
# The cells were washed with a plate washer buffer to remove the formaldehyde solution. The plate was flicked to removed excess wash buffer and tapped onto paper towels. Quenching buffer (100 μL) was added to each well and the cells were incubated at ambient temperature for 20 minutes without shaking.
# The cells were washed with a plate washer buffer to remove the quenching buffer. Blocking buffer (100 μL) was added and the cells were incubated at ambient temperature for at least an hour with gentle shaking.
# The cells were washed with a plate washer buffer and diluted primary antibody (50 μL) was added to each well (blocking buffer was added to the negative control wells instead). The plates were incubated overnight at 4° C. with gentle shaking.
# The wash buffer was removed, diluted secondary antibody (100 μL) was added, and the cells were incubated at ambient temperature for 1 hour with gentle shaking. […]
# [1] = inhibition of Axl activity, phospho-Akt in-cell Western assay, Table 1
# [2] = Table 3, Hela cells, Axl antibody cross-linking stimulation, phospho-Akt chemiluminescence
# [3] = inhibition of Axl activity, Table 1
# [4] = Table 5, Hela cells, Axl antibody cross-linking stimulation, phospho-Akt chemiluminescence
# [5] = Table 2, Hela cells, Axl antibody cross-linking stimulation, phospho-Akt chemiluminescence
# [6] = Table 7, Hela cells, Axl antibody cross-linking stimulation, phospho-Akt chemiluminescence
compound,measurement,setting,value
"CN(C)c1ccc(C(=O)n2nc(Nc3ccc(OCCN4CCCC4)cc3)nc2N)cc1 [compound #4, 5-Amino-1-(4-(dimethylamino)phenyl)carbonyl-3-[4-[2-(pyrrolidin-1-yl)ethoxy]phenylamino]-1H-1,2,4-triazole]",IC50,[1],< 1 µM
"Nc1nc(Nc2ccc(OCCN3CC[C@H](F)C3)cc2)nn1C(=O)c1ccc2c(c1)OCCO2 [compound 386, 5-amino-1-(1,4-benzodioxan-6-yl)carbonyl-3-[4-[2-((S)-3-fluoropyrrolidin-1-yl)ethoxy]phenylamino]-1H-1,2,4-triazole]",IC50,[2],< 1 µM
CC(C)Oc1ccc(C(=O)n2nc(Nc3ccc(OCCN4CCCCC4)cc3)nc2N)cc1 [compound 163],IC50,[3],< 1 µM
"CC(C)Oc1ccc(C(=O)n2nc(Nc3ccc4c(c3)NC(=O)C(F)(F)O4)nc2N)cc1 [compound 63, 5-amino-3-(2,2-difluoro-2H-benzo[b][1,4]oxazin-3(4H)-on-6-yl)amino-1-(4-(iso-propoxy)phenyl)carbonyl-1H-1,2,4-triazole]",IC50,[4],> 20 µM
"Nc1nc(Nc2ccc3c(c2)OCCO3)n(C(=O)c2cccc(OCc3ccccc3)c2)n1 [compound 155, 3-amino-1-(3-(benzyloxy)phenyl)carbonyl-5-(1,4-benzodioxan-6-yl)amino-1H-1,2,4-triazole]",IC50,[5],> 20 µM
"CC(C)Oc1ccc(C(=O)n2nc(N)nc2Nc2ccc(N3CCOCC3)cc2)cc1 [compound 49, 3-amino-1-(4-(iso-propoxy)phenyl)carbonyl-5-(4-(morpholin-4-yl)phenylamino]-1H-1,2,4-triazole]",IC50,[5],> 20 µM
"Nc1nc(Nc2ccc(Br)cc2)nn1C(=O)c1ccc(Cl)cc1 [compound 218, 5-amino-3-(4-bromophenyl)amino-1-(4-chlorophenyl)carbonyl-1H-1,2,4-triazole]",IC50,[3],1 to 10 µM
"CN1CCN(c2ccc(Nc3nc(N)nn3C(=O)c3ccc(N(C)C)cc3)cc2)CC1 [compound 362, 3-amino-1-(4-(dimethylamino)phenyl)carbonyl-5-(4-(4-methylpiperazin-1-yl)phenylamino]-1H-1,2,4-triazole]",IC50,[5],1 to 10 µM
"CN1CCN(c2ccc(Nc3nc(N)n(C(=O)c4cccc(N(C)C)c4)n3)cc2)CC1 [compound 363, 5-amino-1-(3-(dimethylamino)phenyl)carbonyl-3-[4-(4-methylpiperazin-1-yl)phenylamino]-1H-1,2,4-triazole]",IC50,[1],< 1 µM
"CC(C)Oc1ccc(C(=O)n2nc(N)nc2Nc2ccc(N3CCCCC3)cc2)cc1 [compound 192, 3-amino-1-(4-(iso-propoxy)phenyl)carbonyl-5-[4-(piperidin-1-yl)phenylamino]-1H-1,2,4-triazole]",IC50,[5],10 to 20 µM
"CN1CCN(c2ccc(Nc3nc(N)n(C(=O)c4ccc(OC(C)(C)C)cc4)n3)cc2)CC1 [compound 357, 5-amino-1-(4-(tert-butoxy)phenyl)carbonyl-3-[4-(4-methylpiperazin-1-yl)phenylamino]-1H-1,2,4-triazole]",IC50,[1],< 1 µM
"CC(C)c1ccc(NC(=O)n2nc(Nc3ccc(OCCN4CCCCC4)cc3)nc2N)cc1 [compound 41, 5-amino-N-(4-(iso-propyl)phenyl)-3-[4-[2-(piperidin-1-yl)ethoxy]phenylamino]-1H-1,2,4-triazole-1-carboxamide]",IC50,[6],1 to 10 µM
"CC(C)Oc1cncc(C(=O)n2nc(Nc3ccc(OCCN4CCOCC4)cc3)nc2N)c1 [compound 171, 5-amino-1-(3-(iso-propoxy)pyridin-5-yl)carbonyl-3-[4-[2-(morpholin-4-yl)ethoxy]phenylamino]-1H-1,2,4-triazole]",IC50,[2],1 to 10 µM
"Cc1cccc(C(=O)n2nc(Nc3ccc(OCCN4CCCC4)cc3)nc2N)c1 [compound #9, 5-Amino-1-(3-methylphenyl)carbonyl-3-[4-[2-(pyrrolidin-1-yl)ethoxy]phenylamino]-1H-1,2,4-triazole]",IC50,[1],< 1 µM
"CC(C)Oc1ccc(C(=O)n2nc(Nc3cccc(OCC#N)c3)nc2N)cc1 [(Ia-21), 5-amino-3-[3-(cyanomethoxy)phenylamino]-1-(4-(iso-propoxy)phenyl)carbonyl-1H-1,2,4-triazole]",IC50,[3],1 to 10 µM
"CC(C)(C)Oc1ccc(C(=O)n2nc(Nc3ccc(OCCn4ccnc4)cc3)nc2N)cc1 [compound 370, 5-amino-1-(4-(tert-butoxy)phenyl)carbonyl-3-[4-[2-(imidazol-1-yl)ethoxy]phenylamino]-1H-1,2,4-triazole]",IC50,[1],< 1 µM
"CS(=O)(=O)N1CCC(Nc2nc(N)n(C(=O)c3ccc(N4CCOCC4)cc3)n2)CC1 [compound 399, 5-amino-1-(4-(morpholin-4-yl)phenyl)carbonyl-3-(1-methylsulfonylpiperidin-4-yl)amino-1H-1,2,4-triazole]",IC50,[4],> 20 µM
"Cc1cc(C(=O)n2nc(N)nc2Nc2ccc3c(c2)OCCO3)ccc1F [compound 241, 3-amino-5-(1,4-benzodioxan-6-yl)amino-1-[(4-fluoro-3-methyl)phenyl]carbonyl-1H-1,2,4-triazole]",IC50,[5],> 20 µM
"CC(C)Oc1ccc(C(=O)n2nc(Nc3ccc(OCCN4CCCC4=O)cc3)nc2N)cc1 [compound 337, 5-amino-1-(4-(iso-propoxy)phenyl)carbonyl-3-[4-[2-(pyrrolidin-2-on-1-yl)ethoxy]phenylamino]-1H-1,2,4-triazole]",IC50,[1],< 1 µM
"CN(C)c1ccc(NC(=O)n2nc(Nc3ccc(OCCN4CCCCC4)cc3)nc2N)cc1 [compound 44, 5-amino-N-(4-(dimethylamino)phenyl)-3-[4-[2-(piperidin-1-yl)ethoxy]phenylamino]-1H-1,2,4-triazole-1-carboxamide]",IC50,[6],1 to 10 µM
"COc1ccc(Nc2nc(N)n(C(=O)c3ccc(OC(C)C)cc3)n2)cc1 [compound 117, 5-amino-1-(4-(iso-propoxy)phenyl)carbonyl-3-[4-(methoxy)phenylamino]-1H-1,2,4-triazole]",IC50,[3],1 to 10 µM
"CN(c1ccc(OCCN2CCCC2)cc1)c1nc(N)n(C(=O)c2ccc(OC(C)(C)C)cc2)n1 [compound 272, 5-amino-1-(4-(tert-butoxy)phenyl)carbonyl-3-[4-[2-(pyrrolidin-1-yl)ethoxy]phenyl][methyl]amino-1H-1,2,4-triazole]",IC50,[1],> 20 µM
